How the values were obtained:
[1] = system: caspase 3; assay: Caspase 3 activity in human epidermal keratinocytes treated with AMP2Na, with or without UV-B irradiation; format: cell-based
Excerpt: The present Example examined a change in the caspase activity when human epidermal cells treated with disodium adenosine 5′-monophosphate (AMP2Na) were irradiated with ultraviolet light.
Human epidermal keratinocytes (purchased from Kurabo Industries Ltd.) were precultured using EpiLife-KG2 culture medium (produced by Kurabo Industries Ltd.) in 10 cm collagen-coated petri dishes (produced by Asahi Glass Co., Ltd.), and seeded at a density of 30,000 cells/well into a collagen-coated 96-well microplate. After cultivation in the EpiLife-KG2 culture medium for 8 hours, the culture medium was replaced with EpiLife culture medium (produced by Kurabo Industries Ltd.), followed by cultivation for an additional 16 hours. Subsequently, the culture medium was replaced with AMP2Na-containing culture medium adjusted to various concentrations. […] Subsequently, the activity of caspase 3 expressed in the cells were measured using a SensoLyte™ Rh110 Caspase 3 Assay Kit (produced by AnaSpec, Inc.). […] Further, in order to examine influences that AMP2Na affect the caspase activity of normal cells, caspase activity of the cells that were not irradiated with UV-B but treated with AMP2Na was determined. […]

[2] = system: JB6 cells; assay: Amount of cyclobutane pyrimidine dimers (CPD) in genomic DNA of UV-B irradiated JB6 cells, by ELISA; format: cell-based, mouse; conditions: 15 mJ/cm^2 UV-B, 48 h
Experimental: In this Example, normal mouse epidermal cells were irradiated with ultraviolet light, and then cultured in an AMP2Na-containing culture medium. Using the amount of cyclobutane pyrimidine dimers (CPD) as an index, the action of AMP2Na to reduce DNA mutation was examined.
Normal mouse epidermal cell-derived JB6 cells (purchased from ATCC) were cultured in an FBS-containing MEM culture medium until subconfluent. Subsequently, 4×10^5 cultured cells were seeded into a 3.5 cm-dish with MEM (minimum essential medium) culture medium containing FBS (fetal bovine serum). Next day after the seeding, the culture medium was replaced with a serum-free MEM culture medium for serum starvation. Subsequently, the culture medium was replaced with PBS, followed by the irradiation with 15 mJ/cm^2 of UV-B. After ultraviolet irradiation, the culture medium was replaced with serum-free MEM culture medium containing 0.01 mM, 0.1 mM, or 1 mM AMP2Na or AMP2Na-free culture-medium (control). After the replacement of the culture medium, the cells were cultured with 5% CO2 at 37° C. for 48 hours, and then collected.
Genomic DNA was extracted from the collected cells using a FastPure (trademark) DNA kit (Takara Bio Inc.). The extraction was carried out in accordance with the kit manual.
The amount of CPD in genomic DNA extracted from each cell was measured using ELISA. In particular, the extracted genomic DNA was heated at 100° C. for 10 minutes, and cooled on ice. Subsequently, genomic DNA was dispensed (50 μL/well) into a 96-well microplate coated with protamine sulfate, and dried. The following day, each of the wells was washed with PBS-T (PBS with Tween 20), and FBS-containing PBS was dispensed into each of the wells. The wells were then kept for 30 minutes at 37° C. […] Subsequently, the absorbance values at 492 nm were measured, and the amount of CPD in genomic DNA was calculated to determine the rate of change of CPD (variation in the relative amount of CPD; %) under each condition when the amount of CPD in the case of cultivation in the AMP2Na-free culture medium was assigned a value of 100%.

[3] = system: Hos:HR-1 mice; assay: Preventive effect on skin cancer in ultraviolet light-irradiated hairless mice; format: in vivo; conditions: 3% AMP2Na in 20% ethanol aqueous solution, 0.1 mL on the back twice a day, 5 days a week
Experimental: In this Example, hairless mice were irradiated with ultraviolet light, and the preventive effect of AMP2Na against photocarcinogenesis in the mice was examined.
5-week-old female Hos:HR-1 mice were purchased from Japan SLC, Inc., and from the age of 7 weeks, ultraviolet light (UV-B) irradiation was performed on their back. The ultraviolet irradiation (irradiation amount per time: 60 mJ/cm^2) was performed once a day, 5 days a week, for 12 weeks.
Then, a 20% ethanol aqueous solution containing 3% of AMP2Na dissolved therein (test solution) and a 20% ethanol aqueous solution containing no AMP2Na (base) were prepared.
After feeding the ultraviolet light-irradiated mice under normal conditions for 1 week, the mice were divided into 3 groups (6 mice in each group) under the conditions shown in Table 1, and fed for 12 weeks.
The development of tumors was determined, and the number of tumors was counted.

[4] = 6th week from start of application

`Nc1ncnc2c1ncn2[C@@H]1O[C@H](COP(=O)([O-])[O-])[C@@H](O)[C@H]1O.[Na+].[Na+]` [AMP2Na, disodium adenosine 5′-monophosphate] was tested. Which caspase activity ([1]; human epidermal keratinocytes pretreated 2 h with AMP2Na, then 30 mJ/cm^2 UV-B, measured after 6 h cultivation) did it give?
The caspase activity was “significant increase in the caspase activity”.

And the caspase activity ([1]; non-ultraviolet-irradiated human epidermal keratinocytes, 2 h treatment with AMP2Na-containing medium at various concentrations)?
Its caspase activity is “almost no increase in the caspase activity”.

What about the “relative amount of CPD” value ([2]; then 0.1 mM AMP2Na, versus control) of the same compound?
The value was “decrease in the relative amount of CPD compared to the control group was significant”.

What about the “relative amount of CPD” value ([2]; then 1 mM AMP2Na, versus control) of the same compound?
Its value is “decrease in the relative amount of CPD compared to the control group was significant”.

What about the “relative amount of CPD” value ([2]; then AMP2Na added (0.01, 0.1 or 1 mM), AMP2Na-free control = 100%) of the same compound?
Its value is “decreased compared to the control group”.

What about the “average number of tumors developed per mouse” value [3, 4] of the same compound?
The value was 0.

What about the “tumor formation on the back of the mice” value [3, 4] of the same compound?
The value was “not in the test solution-applied group”.

What about the tumor incidence [3, 4] of the same compound?
Its tumor incidence is 0%.

And the tumor incidence ([3]; 12th week from start of application)?
The tumor incidence was 17%.

Reference: US9125928B2, “Agent for suppressing the formation of abnormal skin cells caused by exposure to light” (OTSUKA PHARMACEUTICAL CO., LTD., priority 2010, dated 2015)
